Results reported in patent publication US20090239757A1, “Control Sequences Responding to AMP and Uses Thereof” (priority 2004, published 2009).
Residues, ends and D or L forms follow the SMILES beside them.

Test system: E. coli TOP10
Assay: microarray transcription profile of E. coli TOP10 expressing Novispirin G10 (pDRS5-novispirin, arabinose induced) relative to control strain pBAD gIII A
Type: cell-based, Escherichia coli
Method: In order to obtain a transcriptional profile of E. coli expressing Novispirin G10, 2×10 mL sterile LB media (10 g/L Bactotryptone, 5 g/L Yeast extract, and 10 g/L NaCl) containing 100 mg/L ampicillin was inoculated with E. coli TOP10 harbouring pDRS5-novispirin and pBAD gIII A, respectively. These cultures were grown overnight at 37° C. at 180 rpm. The overnight cultures were diluted 1/100 into fresh sterile RM media (2% Casamino Acids, 0.2% glycerol, 1 mM MgCl2, 0.1 mM thiamine, 6 g/L Na2HPO4, 3 g/L KH2PO4.2H2O, 0.5 g/L NaCl, 0.1 g/L NH4Cl at pH 7.4) supplemented with 100 mg/L ampicillin and 0.1% arabinose. 100 mL of each culture was grown at 37° C., 240 rpm for 4.5 hours before being harvested by poured into centrifugation tubes containing 10 mL pre-frozen milliQ water and immediate centrifugation at 4200 g for 15 minutes at 4° C. Immediately hereafter, the supernatant was decanted and the cell […] was frozen at −20° C. for storage until RNA preparation was initiated.
Total RNA was isolated from the two E. coli (expressing either Novispirin G10 or a control peptide) cultures by use of the High Pure RNA Isolation kit (Roche, cat #1 828 665) according to the manufacturers instructions. Residual DNA was removed on-column with RNase-free DNase. Labelled samples were prepared from 30 μg of total bacterial RNA. Fluorescent first strand cDNA was prepared by random primed reverse transcription (Superscript II; Life Technologies) by use of random hexamers for cDNA synthesis. 2 μl (20 μg) of random primer was mixed with 15 μl (30 μg) of total RNA, incubated for 5 min at 70° C., and cooled on ice. To each sample was added 5× first strand buffer (6 μl), 0.1 M DTT (3 μl), dNTP mix (5 mM dATP, dGTP and dTTP and 2 mM dCTP) (1 μl), RNaseOut (1 μl), Superscript II reverse transcriptase (2 μl) and Cy-dCTP (3 μl). Reverse transcription was carried out at 42° C. for 1 hr. RNA was removed by addition of 10 μl NaOH (1 M) and incubation at 65° C. for 10 min. The samples were neutralised by addition of 10 μl HCl (1 M). Cy3 and Cy5 cDNA samples were mixed and immediately purified with a GFX PCR DNA and Gel Band Purification Kit (Amersham Biosciences).
Slides were pre-hybridised at 42° C. for 45 min in a solution containing 4×SSC+0.5% SDS+1% BSA and dried by centrifugation. Hybridizations were in a volume of 25 μl under a supported cover slip at 42° C. for 16-18 h at high humidity. The hybridisation mixture was labelled cDNA in a formamide-based hybridisation buffer (MWG—supplied with the pan-arrays). Cover slip and supports were gently removed (2×SSC in a wash tray) and arrays were washed by immersion into 2×SSC+0.1% SDS for 5 min, 1×SSC+0.1% SDS for 5 min, 0.5×SSC for 5 min and 1× millipore water for 10 sec and dried by centrifugation. Slides were scanned on a GMS 418 scanner to detect Cy3 and Cy5 fluorescence. Data analysis was carried out using ImaGene 5.0 and GeneSight 3.5 from BioDiscovery (www.biodiscovery.com). Two biological replicate experiments with four replicate hybridisations in each experiment were carried out for generation of data.
Pan E. coli K12 Arrays from MWG Biotech were used in this study (lot No.: 020206). The 4239 E. coli K12 specific oligonucleotide probes present on this glass-based DNA chip represent the complete Escherichia coli (K12) genome
Gene expression data was analyzed using the GeneSight 4.1.5 software from BioDiscovery. Data was prepared using local background correction, removal of flagged spots (contaminated background or signal), floor value raising data to a minimum value of 20, calculation of ratio, log(2) transformation of ratios, print-tip lowess normalization, and finally combination of replicate spot.

CC[C@H](C)[C@H](NC(=O)CNC(=O)[C@H](CCCCN)NC(=O)[C@H](CCCNC(=N)N)NC(=O)[C@@H](NC(=O)[C@@H](NC(=O)[C@H](CCCNC(=N)N)NC(=O)[C@H](CCCNC(=N)N)NC(=O)[C@H](CC(C)C)NC(=O)[C@H](CC(N)=O)NC(=O)[C@@H](N)CCCCN)[C@@H](C)CC)[C@@H](C)CC)C(=O)N[C@@H](Cc1c[nH]cn1)C(=O)N[C@H](C(=O)N[C@H](C(=O)N[C@@H](CCCCN)C(=O)N[C@@H](CCCCN)C(=O)N[C@@H](Cc1ccc(O)cc1)C(=O)NCC(=O)O)[C@@H](C)CC)[C@@H](C)CC [Novispirin G10] (H-KNLRRIIRKGIHIIKKYG-OH; N-terminus assumed)
ratio, gene abrB: −6.2
ratio, gene ackA: −4.8
ratio, gene adhP: 3.8
ratio, gene aer: 14.3
ratio, gene agaZ: −2.9
ratio, gene ais: 14.1
ratio, gene amyA: 5.8
ratio, gene ansB: −3.8
ratio, gene appB: 47.2
ratio, gene appC: 3.5
ratio, gene argA: 3.8
ratio, gene aspA: −5.7
ratio, gene asr: 19.2
ratio, gene atpC: 3.1
ratio, gene b0919: −2.8
ratio, gene b1044: −3.0
ratio, gene b1354: 3.0
ratio, gene b1355: 5.0
ratio, gene b1362: −14.9
ratio, gene b1394: 2.8
ratio, gene b1408: 3.3
ratio, gene b1422: 3.0
ratio, gene b1450: 4.8
ratio, gene b1454: 9.7
ratio, gene b1518: −3.8
ratio, gene b1520: 3.2
ratio, gene b1582: 6.8
ratio, gene b1583: 4.3
ratio, gene b1593: −5.0
ratio, gene b1605: 3.0
ratio, gene b1627: 3.5
ratio, gene b1643: 4.5
ratio, gene b1691: 3.7
ratio, gene b1721: 98.3
ratio, gene b1724: 9.1
ratio, gene b1825: 8.7
ratio, gene b1826: 4.6
ratio, gene b1836: 6.9
ratio, gene b1837: 5.3
ratio, gene b1903: −3.1
ratio, gene b1953: 3.8
ratio, gene b1995: −3.1
ratio, gene b2097: 8.1
ratio, gene b2253: 8.4
ratio, gene b2254: 5.5
ratio, gene b2256: 4.0
ratio, gene b2324: −4.0
ratio, gene b2372: 3.8
ratio, gene b2383: −4.1
ratio, gene b2809: 3.4
ratio, gene b2833: 5.1
ratio, gene b2879: 2.9
ratio, gene b3023: 3.9
ratio, gene b3100: 9.9
ratio, gene blc: 4.9
ratio, gene bolA: 13.0
ratio, gene btuE: 3.4
ratio, gene btuR: −2.8
ratio, gene celF: 4.1
ratio, gene cheR: 6.8
ratio, gene clpB: −3.6
ratio, gene codA: 3.4
ratio, gene crcA: 11.7
ratio, gene csgF: 2.8
ratio, gene dacC: 3.6
ratio, gene dcuC: −6.2
ratio, gene deoA: 3.8
ratio, gene deoB: 3.0
ratio, gene deoR: 2.9
ratio, gene dgt: −2.7
ratio, gene dksA: 4.1
ratio, gene dnaJ: −3.0
ratio, gene dnaK: −2.8
ratio, gene dps: 4.4
ratio, gene ebgR: −3.0
ratio, gene ecpD: −3.7
ratio, gene elaB: 9.7
ratio, gene entF: −3.2
ratio, gene evgA: −2.9
ratio, gene fadL: −2.6
ratio, gene fdnG: −3.3
ratio, gene fecE: −2.7
ratio, gene fecR: −3.6
ratio, gene feoA: −6.1
ratio, gene feoB: −5.2
ratio, gene fepC: −2.7
ratio, gene fhuE: −2.7
ratio, gene fimC: 3.8
ratio, gene flgG: −2.6
ratio, gene flhB: −2.8
ratio, gene flhD: −2.7
ratio, gene fliD: 5.4
ratio, gene fliJ: −3.1
ratio, gene fliQ: 4.5
ratio, gene folA: 3.2
ratio, gene frdC: −5.0
ratio, gene frwB-r: 4.0
ratio, gene gabP: 8.2
ratio, gene gabT: 6.5
ratio, gene gapC_1: 3.3
ratio, gene gatA: −3.0
ratio, gene gatC: −2.7
ratio, gene gatD: −3.2
ratio, gene gatY: −6.2
ratio, gene gatz: −6.8
ratio, gene gcvH: −3.9
ratio, gene gcvT: −4.8
ratio, gene glk: 3.4
ratio, gene glpA: −2.7
ratio, gene glpA-r: −2.9
ratio, gene glpB: −7.8
ratio, gene glpC: −5.9
ratio, gene glpT: −3.6
ratio, gene gltB: −2.7
ratio, gene gntT: −4.3
ratio, gene grpE: −3.0
ratio, gene hdeA: 7.7
ratio, gene hdeB: 7.9
ratio, gene hdeD: 4.3
ratio, gene hemL: 8.3
ratio, gene hisC: −4.5
ratio, gene hscA: 3.2
ratio, gene hslU: −3.2
ratio, gene hslV: −3.0
ratio, gene hybB: −2.9
ratio, gene hyfD: −2.9
ratio, gene hypB: −3.4
ratio, gene hypC: −3.0
ratio, gene hypE: −3.9
ratio, gene ibpB: −6.5
ratio, gene katE: 9.9
ratio, gene lacY: −2.7
ratio, gene lacZ: −9.1
ratio, gene lon: −2.9
ratio, gene malE: 4.6
ratio, gene malM: 4.0
ratio, gene mcrA: 3.9
ratio, gene menA: −2.9
ratio, gene menB: 2.9
ratio, gene metE: 4.0
ratio, gene mfd-r: −4.6
ratio, gene mglC: −2.6
ratio, gene mgtA: 7.5
ratio, gene minD: −2.9
ratio, gene mlc: −2.6
ratio, gene mopA: −3.6
ratio, gene mopB: −9.1
ratio, gene mrr: 2.9
ratio, gene nagA: 3.7
ratio, gene nagB: 8.8
ratio, gene napD: −3.5
ratio, gene napF: −3.2
ratio, gene napH: −7.9
ratio, gene narU: 15.1
ratio, gene narX: −4.0
ratio, gene narY: 11.0
ratio, gene narZ: 4.9
ratio, gene ndh: 3.1
ratio, gene nirB: −2.9
ratio, gene nirC: −3.0
ratio, gene nirD: −5.7
ratio, gene nmpC: −6.6
ratio, gene nrfA: −12.7
ratio, gene ompF: −4.5
ratio, gene ompX: 4.7
ratio, gene osmC: 7.2
ratio, gene osmE: 11.7
ratio, gene osmY: 6.4
ratio, gene otsA: 5.2
ratio, gene otsB: 5.6
ratio, gene pepB: 4.7
ratio, gene pheP: 3.4
ratio, gene phnE: 4.6
ratio, gene phoP: 2.8
ratio, gene phoQ: 3.7
ratio, gene potG: 4.0
ratio, gene poxB: 3.3
ratio, gene pphA: 5.2
ratio, gene proW: 7.9
ratio, gene pspA: 6.7
ratio, gene pspB: 6.9
ratio, gene pspC: 15.8
ratio, gene pspD: 13.5
ratio, gene pspE: 9.4
ratio, gene pssA: −2.8
ratio, gene ptsP-r: −3.9
ratio, gene pyrE: 4.2
ratio, gene queA: −2.9
ratio, gene rcsA: −2.8
ratio, gene rfaJ: −2.6
ratio, gene rfaP: −3.0
ratio, gene rmf-r: 3.9
ratio, gene rnt: 3.9
ratio, gene rpiR: −3.1
ratio, gene rpoB-r: 2.8
ratio, gene rpsV: 5.2
ratio, gene rstB: 3.6
ratio, gene sfcA: 5.8
ratio, gene sfmC: 11.4
ratio, gene sfsA: 6.4
ratio, gene slp: 3.6
ratio, gene smp: −3.2
ratio, gene sohA: 4.3
ratio, gene speG: 3.8
ratio, gene srlA: −2.7
ratio, gene srlR: −2.6
ratio, gene talA: 11.7
ratio, gene tdcB: −2.7
ratio, gene tdcC: −5.1
ratio, gene thrB: 3.3
ratio, gene tktB: 26.5
ratio, gene tolC: 3.9
